Tests used:
Format in all cases: in vivo
[1] = system: Peripheral Sensory Neuropathy Induced by Vincristine in Mice; assay: von Frey test, vincristine-induced peripheral sensory neuropathy; details: vincristine 0.2 mg/kg once a week alone, compared with control group; three days after the administration
Excerpt: (§1) The mice in the three groups in the above (1) were put in a cage and a filament having a strength of 0.16 g was pressed on the plantar surface of the leg to measure the number of times (a score) of avoidance response.
In the present test, the mice were divided into three groups by a difference in test objects. As in Example 1, male Balb/c mice of 6 to 7 weeks old were used. The mice were divided into a total of three groups, a control group, a vincristine administration group, and a vincristine and Lentinus edodes mycelium extract administration group (vincristine+Lentinus edodes mycelium extract administration group).
(§2) Vincristine was administered to each mouse once a day at a dose of 0.2 mg/kg. Further, the Lentinus edodes mycelium extract was administered to each mouse once a day at a dose of 2 g/kg.
Further, the number of times of administration was set to once a week (on Day 0, Day 7, and Day 14) for vincristine and daily (from Day 0 to Day 15) for the Lentinus edodes mycelium extract in both the von Frey test and the cold plate test below.
Evaluation was performed in the same manner as in the test with oxaliplatin in Example 1. Referring to FIG. 5, the horizontal axis indicates an elapsed time after administration (days) and the vertical axis indicates the avoidance response (scores). Open circles with a solid line represent the control group. Filled circles with a solid line represent the group in which only vincristine was administered. Open squares with a dash line represent the group in which vincristine and the Lentinus edodes mycelium extract were administered at the same time (vincristine+Lentinus edodes mycelium extract administration group). When the difference with the control group was determined to be significant using a significance level of 5%, the data were marked by “*”.
(§3) In the present test, the mice were divided into six groups by a difference in test objects. As in Example 1, male Balb/c mice of 6 to 7 weeks old were used. […]

[2] = system: Peripheral Sensory Neuropathy Induced by Vincristine in Mice; assay: cold plate test, vincristine-induced peripheral sensory neuropathy; details: vincristine 0.2 mg/kg once a day alone; Day 3
Method: (§4) The effect of the Lentinus edodes mycelium extract on the paresthesia to cold stimulation was tested by performing the cold plate test. The mice in the three groups in the above (1) were put on a cold plate set to 10° C. and a response time for avoidance (a latency) was measured. The shorter latency means that the mouse avoids the cold stimulation of the cold plate more.
In the present test, the mice were divided into three groups by a difference in test objects. As in Example 1, male Balb/c mice of 6 to 7 weeks old were used. The mice were divided into a total of three groups, a control group, a vincristine
administration group, and a vincristine and Lentinus edodes mycelium extract administration group (vincristine+Lentinus edodes mycelium extract administration group).
as §2
Evaluation was performed in the same manner as in the test with oxaliplatin in Example 1. Referring to FIG. 6, the horizontal axis indicates the elapsed time after administration (days) and the vertical axis indicates the avoidance response time (seconds). Open circles with a solid line represent the control group. Filled circles with a solid line represent the group in which only vincristine was administered. Open squares with a dash line represent the group in which vincristine and the Lentinus edodes mycelium extract were administered at the same time (vincristine+Lentinus edodes mycelium extract administration group). When the difference with the control group was determined to be significant using a significance level of 5%, the data were marked by “*”.
as §3

[3] = system: Peripheral Sensory Neuropathy Induced by Oxaliplatin in Mice; assay: von Frey test, oxaliplatin-induced peripheral sensory neuropathy; details: oxaliplatin 6 mg/kg once a week alone, compared with control group; 0.16 g filament
Method: (§7) Male Balb/c mice of 6 to 7 weeks old were used. The mice were divided into three groups: a control group, an oxaliplatin administration group, and an oxaliplatin and Lentinus edodes mycelium extract administration group (oxaliplatin+Lentinus edodes mycelium extract administration group). Oxaliplatin was administered to each mouse once a day at a dose of 6 mg/kg. Further, the Lentinus edodes mycelium extract was administered to each mouse once a day at a dose of 2 g/kg.
(§8) Further, the number of times of administration was set to once a week (on Day 0, Day 7, and Day 14) for oxaliplatin and daily (from Day 0 to Day 15) for the Lentinus edodes mycelium extract in both the von Frey test and the cold plate test below.
The higher number of times of avoidance means that the mouse avoids the stimulation by the filament more. […] When the difference with the control group was determined to be significant using a significance level of 5%, the data were marked by “*”.

[4] = system: Peripheral Sensory Neuropathy Induced by Oxaliplatin in Mice; assay: cold plate test, oxaliplatin-induced peripheral sensory neuropathy; details: oxaliplatin 6 mg/kg once a week alone; Day 3; cold plate 10° C.
Method: as §7, §8
Oxaliplatin was administered to each mouse once a day at a dose of 6 mg/kg. Further, the Lentinus edodes mycelium extract was administered to each mouse once a day at a dose of 2 g/kg three days or six days after the administration of oxaliplatin. These groups are referred to as “Lentinus edodes mycelium extract 3-day delayed administration group” and “Lentinus edodes mycelium extract 6-day delayed administration group”, respectively.
Further, groups in which duloxetine was administered after the administration of oxaliplatin were prepared for comparison.

[5] = system: Peripheral Sensory Neuropathy Induced by Bortezomib in Mice; assay: von Frey test, bortezomib-induced peripheral sensory neuropathy; details: bortezomib 1 mg/kg once a week alone, compared with control group; three days after the administration
Excerpt: as §1
(§5) In the present test, the mice were divided into three groups by a difference in test objects. As in Example 1, male Balb/c mice of 6 to 7 weeks old were used. The mice were divided into a total of three groups, a control group, a bortezomib administration group, and a bortezomib and Lentinus edodes mycelium extract administration group (bortezomib+Lentinus edodes mycelium extract administration group).
(§6) Bortezomib was administered to each mouse once a day at a dose of 1 mg/kg. Further, the Lentinus edodes mycelium extract was administered to each mouse once a day at a dose of 2 g/kg.
Further, the number of times of administration was set to once a week (on Day 0, Day 7, and Day 14) for bortezomib and daily (from Day 0 to Day 15) for the Lentinus edodes mycelium extract in both the von Frey test and the cold plate test below.
Evaluation was performed in the same manner as in the test with oxaliplatin in Example 1. Referring to FIG. 7, the horizontal axis indicates an elapsed time after administration (days) and the vertical axis indicates the avoidance response (scores). Open circles with a solid line represent the control group. Filled circles with a solid line represent the group in which only bortezomib was administered. Open squares with a dash line represent the group in which bortezomib and the Lentinus edodes mycelium extract were administered at the same time (bortezomib+Lentinus edodes mycelium extract administration group). When the difference with the control group was determined to be significant using a significance level of 5%, the data were marked by “*”.
as §3

[6] = system: Peripheral Sensory Neuropathy Induced by Bortezomib in Mice; assay: cold plate test, bortezomib-induced peripheral sensory neuropathy; details: bortezomib 1 mg/kg once a day alone; Day 3
Method: as §4, §5, §6
Evaluation was performed in the same manner as in the test with oxaliplatin in Example 1. Referring to FIG. 8, the horizontal axis indicates the elapsed time after administration (days) and the vertical axis indicates the avoidance response time (seconds). Open circles with a solid line represent the control group. Filled circles with a solid line represent the group in which only bortezomib was administered. Open squares with a dash line represent the group in which bortezomib and the Lentinus edodes mycelium extract were administered at the same time (bortezomib+Lentinus edodes mycelium extract administration groups). When the difference with the control group was determined to be significant using a significance level of 5%, the data were marked by “*”.
as §3

## CC[C@]1(O)C[C@H]2CN(CCc3c([nH]c4ccccc34)[C@@](C(=O)OC)(c3cc4c(cc3OC)N(C=O)[C@H]3[C@@](O)(C(=O)OC)[C@H](OC(C)=O)[C@]5(CC)C=CCN6CC[C@]43[C@@H]65)C2)C1 [vincristine]
[1]
  avoidance response (scores), von Frey test: significantly increased
[2]
  latency to the cold stimulation (avoidance response time), cold plate test: significantly reduced

## O=C1[O][Pt]2([NH][C@@H]3CCCC[C@H]3[NH]2)[O]C1=O [oxaliplatin]
[3]
  avoidance response (scores), von Frey test: significantly increased
[4]
  latency to the cold stimulation (avoidance response time), cold plate test: significantly reduced

## CC(C)C[C@H](NC(=O)[C@H](Cc1ccccc1)NC(=O)c1cnccn1)B(O)O [bortezomib]
[5]
  avoidance response (scores), von Frey test: significantly increased
[6]
  latency to the cold stimulation (avoidance response time), cold plate test: significantly reduced

Source: patent US11793845B2, “Composition for ameliorating peripheral sensory neuropathy” (KINKI UNIVERSITY, priority 2016, dated 2023)
